# Results as given in patent US3974153A, “7-Hydrocarbonoxy imino-acetamido-3-carbamoyloxy methylceph-3-em-4 carboxylic acids” (Glaxo Laboratories Limited, priority 1971, dated 1976).
# Counter-ions that a name gives are not always drawn.
# Key:
# Proteus species = assay: antibacterial activity; assay type: cell-based; conditions: in vitro and in vivo tests
# Neisseria meningitidis = assay: in vitro antibacterial activity; assay type: cell-based
# Escherichia coli = assay: antibacterial activity; assay type: cell-based; conditions: in vitro and in vivo tests
# Staphylococci = assay: antibacterial activity; assay type: cell-based; conditions: in vitro and in vivo tests
# Neisseria species = assay: antibacterial activity; assay type: cell-based; conditions: in vitro and in vivo tests
# [1] = serum levels following parenteral administration, humans; assay type: in vivo; conditions: human subjects
# mammalian esterases = assay: resistance to esterases; assay type: in vitro ADME
# Klebsiella species = assay: antibacterial activity; assay type: cell-based; conditions: in vitro and in vivo tests
# β-lactamases = assay: stability to β-lactamases produced by gram-negative organisms; assay type: cell-based; conditions: evidenced by in vitro activity against β-lactamase-producing strains of Escherichia, Enterobacter and Klebsiella species
# Clostridia species = assay: antibacterial activity; assay type: cell-based; conditions: in vitro and in vivo tests
# Haemophilus influenzae = assay: antibacterial activity; assay type: cell-based
# [2] = system: gram-positive and gram-negative microorganisms; assay: antibacterial activity against gram-positive and gram-negative microorganisms; assay type: cell-based
# [3] = serum levels following parenteral administration, animals; assay type: in vivo; conditions: animal subjects
# Enterobacter species = assay: antibacterial activity; assay type: cell-based; conditions: in vitro and in vivo tests
# Neisseria gonorrhoeae = assay: in vitro antibacterial activity; assay type: cell-based
# Streptococcus pyogenes = assay: antibacterial activity; assay type: cell-based; conditions: in vitro and in vivo tests
# [4] = stability in the body and urinary recovery, animals; assay type: in vivo
# Diplococcus pneumoniae = assay: antibacterial activity; assay type: cell-based; conditions: in vitro and in vivo tests
# serum binding = assay type: in vitro ADME
# [5] = stability in the body and urinary recovery, humans; assay type: in vivo, human
# Staphylococcus aureus = assay: antibacterial activity; assay type: cell-based; conditions: in vitro and in vivo tests
# Streptococcus vilidans = assay: antibacterial activity; assay type: cell-based; conditions: in vitro and in vivo tests
# [6] = exposure of crystalline forms to water vapour; assay type: physicochemical; conditions: for water content after exposure to moisture (Karl-Fischer): 75% relative humidity, 3 days, product is Form IV
# Description: The resulting material contains about 4% water (i.e. about 1 mole) and is believed to be a hydrate. This change is reversible, so that Form IV salt may be converted to Form I salt by, for example, drying in vacuo over a desiccating agent such as phosphorus pentoxide.
# If crystalline Form III material is treated in this way, the crystal habit of the product appears to be retained throughout the sequence of transformations. Form III salt may also be converted to Form I salt by heating a suspension of Form III material in nearly boiling methanol; this transformation […] in loss of crystallinity where crystalline Form III material is used.
# Sample of Form I and Form III sodium 3-carbamoyloxymethyl-7-[2-(fur-2-yl)-2-methoxyiminoacetamido]ceph-3-em-4-carboxylate (syn isomer), prepared according to Method (iii) of Example 7 and Example 9 respectively, were exposed to moisture (75% relative humidity) for 3 days to give the title compound. The IR and NMR spectra of the products conformed to those of an authentic sample. Karl-Fischer water analysis gave, respectively, 4.0 and 3.85% (1 mole H2 O is equivalent to 3.9%).
# solubility of base salts = assay type: physicochemical; conditions: e.g. alkali metal salts
# [7] = distribution in the body on administration by injection; assay type: in vivo
smiles,measurement,setting,value
"CO/N=C(\C(=O)N[C@@H]1C(=O)N2C(C(=O)O)=C(COC(N)=O)CS[C@H]12)c1ccco1 [compound (II), (6R,7R)-3-carbamoyloxymethyl-7-[2-(fur-2-yl)-2-methoxyiminoacetamido]ceph-3-em-4-carboxylic acid (syn isomer)]",activity against Proteus species,Proteus species,active
same,in vitro activity against strains of Neisseria meningitidis,Neisseria meningitidis,particularly high in vitro activity
same,activity against Escherichia coli,Escherichia coli,active
same,activity against Staphylococci,Staphylococci,active
same,activity against Neisseria species,Neisseria species,active
same,serum levels,[1],high serum levels
same,resistance to the action of mammalian esterases,mammalian esterases,resistant
same,activity against Klebsiella species,Klebsiella species,active
same,stability to β-lactamases produced by a range of gram-negative organisms,β-lactamases,very high stability
same,activity against Clostridia species,Clostridia species,active
same,in vitro activity against strains of Haemophilus influenzae,Haemophilus influenzae; in vitro,particularly high in vitro activity
same,activity against Haemophilus influenzae,Haemophilus influenzae; in vitro and in vivo tests,active
same,activity against gram-positive and gram-negative microorganisms,[2]; in vitro and in vivo tests,active
same,in vitro activity at high inoculum levels,[2]; inoculum levels as high as 10^7 organisms/ml,good in vitro activity
same,serum levels,[3],high serum levels
same,activity against Enterobacter species,Enterobacter species,active
same,in vitro activity against strains of Neisseria gonorrhoeae,Neisseria gonorrhoeae,particularly high in vitro activity
same,activity against Streptococcus pyogenes,Streptococcus pyogenes,active
same,recovery of unchanged compound in the urine,[4],high levels
same,stability in the body,[4],stable
same,activity against Diplococcus pneumoniae,Diplococcus pneumoniae,active
same,serum binding,serum binding,low serum binding
same,recovery of unchanged compound in the urine,[5],high levels
same,stability in the body,[5],stable
same,activity against Staphylococcus aureus,Staphylococcus aureus,active
same,activity against Streptococcus vilidans,Streptococcus vilidans,active
"CO/N=C(\C(=O)N[C@@H]1C(=O)N2C(C(=O)O)=C(COC(N)=O)CS[C@H]12)c1ccco1 [Form II, Form II Sodium (6R,7R)-3-Carbamoyloxymethyl-7-[2-(fur-2-yl)-2-methoxyiminoacetamido]ceph-3-em-4-carboxylate (syn isomer)]",water absorption on exposure to water vapour (hygroscopicity),[6]; e.g. 75% relative humidity,does not absorb further water
"CO/N=C(\C(=O)N[C@@H]1C(=O)N2C(C(=O)O)=C(COC(N)=O)CS[C@H]12)c1ccco1 [Form I, Form I Sodium (6R,7R)-3-Carbamoyloxymethyl-7-[2-(fur-2-yl)-2-methoxyiminoacetamido]ceph-3-em-4-carboylate (syn isomer)]",water content after exposure to moisture (Karl-Fischer),[6],4.0%
same,change of form on exposure to water vapour,[6]; e.g. 75% relative humidity,undergo a change of crystalline form leading generally to Form IV salt
same,water absorption on exposure to water vapour (hygroscopicity),[6]; e.g. 75% relative humidity,absorb further water
same,water content of material resulting from exposure to water vapour,"[6]; e.g. 75% relative humidity, material generally Form IV",about 4%
"CO/N=C(\C(=O)N[C@@H]1C(=O)N2C(C(=O)O)=C(COC(N)=O)CS[C@H]12)c1ccco1 [Form III, Form III Sodium (6R,7R)-3-Carbamoyloxymethyl-7-[2-(fur-2-yl)-2-methoxyiminoacetamido]ceph-3-em-4-carboxylate (syn isomer)]",water content after exposure to moisture (Karl-Fischer),[6],3.85%
same,change of form on exposure to water vapour,[6]; e.g. 75% relative humidity,loses all the dioxan present and forms Form IV material
same,water absorption on exposure to water vapour (hygroscopicity),[6]; e.g. 75% relative humidity,hygroscopic
"CO/N=C(\C(=O)N[C@@H]1C(=O)N2C(C(=O)O)=C(COC(N)=O)CS[C@H]12)c1ccco1 [sodium salt, sodium (6R,7R)-3-carbamoyloxymethyl-7-[2-(fur-2-yl)-2-methoxyiminoacetamido]ceph-3-em-4-carboxylate (syn isomer)]",solubility,solubility of base salts,highly soluble
same,distribution in the body,[7],rapid distribution
